This passage reports TGI results from PubChem BioAssay (NCI).

Test systems include A549 NSCLC; EKVX NSCLC; HCT-116 colon; NCI-H226 lung; NCI-H460 lung; SW-620 colon; CAKI-1 renal; DU-145 prostate; MCF7 breast; PC-3 prostate.
What all share (assay): NCI tumour cell line growth inhibition, 48 h

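Step 1: Grow cells in 96-well plates. Step 2: Expose to compound for 48 hours at 5 concentrations. Step 3: Interpolate endpoints linearly; if unreached, use highest concentration. The concentration for full growth arrest is given as TGI.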

As to `Cc1ccccc1NC(=O)CSc1nnc(-c2ccc(N=Cc3ccc(Cl)cc3)cc2)o1`, the TGI in the test on A549 NSCLC, with EKVX NSCLC, in the test with HCT-116 colon, in the test on NCI-H226 lung, with NCI-H460 lung and in the test with SW-620 colon was over 100 µM each time.
As to `O=C(Nc1ccccc1)N1CCN(C(=O)Nc2ccccc2)C1=S`, the TGI was over 100 µM with A549 NSCLC; over 100 µM with CAKI-1 renal; over 100 µM in the test with DU-145 prostate; over 100 µM in the test with EKVX NSCLC; over 100 µM in the test with HCT-116 colon; 70.5 µM in the test on NCI-H226 lung. For the same compound, the TGI with NCI-H460 lung and in the test with SW-620 colon was over 100 µM in each case.
Take `CC(C)(C)C(=O)Nc1c(C=O)ccc2[nH]cnc12`: the TGI with A549 NSCLC, in the test on CAKI-1 renal, with EKVX NSCLC, with HCT-116 colon, with MCF7 breast and in the test with NCI-H226 lung was over 100 µM throughout. In addition, the TGI in the test on NCI-H460 lung, with PC-3 prostate and with SW-620 colon was over 100 µM throughout.
As to `CC(C)(C)C1CCC2c3c([nH]c4ccccc34)C3C(=O)N(c4ccc([N+](=O)[O-])cc4)C(=O)C3C2C1` (stereo unspecified), the TGI in the test with A549 NSCLC is 62.1 µM; in the test with DU-145 prostate it was over 100 µM; in the test on EKVX NSCLC it was over 100 µM; in the test with HCT-116 colon, 22.6 µM; in the test on MCF7 breast it was 17.9 µM; with NCI-H226 lung, 29 µM. In addition, the TGI with NCI-H460 lung, in the test with PC-3 prostate and with SW-620 colon was over 100 µM in each case.
Regarding `CCN(CC)C(=S)SC(C(=O)Nc1nnc(-c2ccc(Cl)cc2)o1)c1ccccc1` (stereo unspecified), the TGI with A549 NSCLC is 52.1 µM; in the test on CAKI-1 renal, 51.8 µM; in the test with DU-145 prostate it was 94 µM; in the test with EKVX NSCLC, 29.4 µM; in the test on HCT-116 colon it was 13.5 µM; in the test with MCF7 breast it was over 100 µM. Besides, the TGI was 84.1 µM in the test on NCI-H460 lung, 28.3 µM with PC-3 prostate and 35.9 µM in the test on SW-620 colon.
For `COC(=O)c1c2c(cc3c1CC1(Cc4cc5c(c(C=O)c4C1)CCC5)C3)CCC2` (stereo unspecified), the TGI is over 100 µM with A549 NSCLC; over 100 µM with CAKI-1 renal; over 100 µM with DU-145 prostate; over 100 µM in the test with EKVX NSCLC; 60 µM in the test with HCT-116 colon; over 100 µM in the test on MCF7 breast. The TGI in the test with NCI-H460 lung, in the test on PC-3 prostate and in the test with SW-620 colon was over 100 µM throughout.
Take `Cc1cc(=O)[nH]c(NNC(C#N)c2cccc([N+](=O)[O-])c2)n1` (stereo unspecified): the TGI in the test on A549 NSCLC, in the test on CAKI-1 renal, with HCT-116 colon, in the test on NCI-H226 lung, with NCI-H460 lung and in the test with SW-620 colon was over 100 µM in each case.
`CN(CCCCCl)P(=O)(OCc1ccc([N+](=O)[O-])o1)OCC1OC(n2ccc(N)nc2=O)C(O)C1O` (stereo unspecified): the TGI in the test with A549 NSCLC was 2.61 µM; in the test on CAKI-1 renal it was over 100 µM; in the test with DU-145 prostate, 44.6 µM; in the test with HCT-116 colon it was 25.9 µM; in the test with MCF7 breast, 17 µM; in the test with NCI-H226 lung, over 100 µM. Besides, the TGI came to 68.3 µM in the test on NCI-H460 lung, 43 µM in the test with PC-3 prostate and 69.6 µM with SW-620 colon.
In the case of `CCOC(=O)c1c(N)sc2c1C(C(=O)OCC)CCCC2` (stereo unspecified), the TGI with A549 NSCLC, with EKVX NSCLC, in the test on HCT-116 colon, in the test on MCF7 breast, with NCI-H226 lung and in the test on NCI-H460 lung was over 100 µM in each case. For the same compound, the TGI with PC-3 prostate and in the test on SW-620 colon was over 100 µM in each case.
In the case of `C=C(Br)CN=CN(C)C`, the TGI in the test on A549 NSCLC, in the test with CAKI-1 renal, in the test on DU-145 prostate, with EKVX NSCLC, with HCT-116 colon and with MCF7 breast was over 100 µM in each case. In addition, the TGI in the test with NCI-H226 lung and in the test with PC-3 prostate was over 100 µM in each case.
On to `ClC1=NN=C(c2c[nH]c3ccccc23)CC1NCc1ccccc1` (stereo unspecified), for which the TGI with A549 NSCLC, in the test on CAKI-1 renal, in the test with DU-145 prostate, in the test with EKVX NSCLC, in the test on HCT-116 colon and in the test with NCI-H226 lung was over 100 µM in each case. The TGI in the test with NCI-H460 lung, with PC-3 prostate and in the test with SW-620 colon was over 100 µM in each case.
In the case of `CC(=O)C(=Cc1cn(C)c(=O)n(C)c1=O)C(C)=O`, the TGI in the test on A549 NSCLC was found to be 565 µM; in the test with CAKI-1 renal it was 224 µM; in the test with EKVX NSCLC, 323 µM; in the test with HCT-116 colon, 188 µM; in the test with MCF7 breast it was 625 µM; in the test with NCI-H226 lung, 293 µM. The TGI turned out to be 231 µM with NCI-H460 lung and 302 µM with SW-620 colon.
Regarding `O=c1[nH]c(=O)n(COC(CO)CO)cc1-c1ccccc1`, the TGI in the test with A549 NSCLC, in the test on CAKI-1 renal, in the test with DU-145 prostate, with EKVX NSCLC, with HCT-116 colon and in the test on MCF7 breast was over 100 µM in each case. Besides, the TGI with NCI-H460 lung, with PC-3 prostate and in the test on SW-620 colon was over 100 µM each time.
Turning to `c1cnc2c(c1)-n1cccc1C1(CCCCC1)NN2`, the TGI in the test with A549 NSCLC, in the test on CAKI-1 renal, in the test with EKVX NSCLC, in the test with HCT-116 colon, with NCI-H226 lung and in the test on NCI-H460 lung was over 100 µM in each case. For the same compound, in the test on SW-620 colon, the TGI is over 100 µM.
Turning to `O=C1NC(O)c2cc3ccccc3cc2O1` (stereo unspecified), the TGI with A549 NSCLC is over 100 µM; in the test on DU-145 prostate, over 100 µM; with EKVX NSCLC, over 100 µM; in the test on HCT-116 colon, 51.1 µM; in the test with MCF7 breast, over 100 µM; in the test with NCI-H226 lung, over 100 µM. In addition, the TGI with NCI-H460 lung, in the test with PC-3 prostate and with SW-620 colon was over 100 µM each time.
As for `N[C@@H](CCC(=O)NC(Cc1ccccc1)C(=O)NCP(=O)(O)O)C(=O)O` (stereo partly specified), the TGI in the test with A549 NSCLC, in the test on EKVX NSCLC, in the test on HCT-116 colon, in the test with MCF7 breast, with NCI-H460 lung and in the test on PC-3 prostate was over 100 µM throughout. In the test with SW-620 colon, this compound came in with a TGI of over 100 µM.
For the compound `NC(=O)CCC(N=c1c2ccccc2n(O)c2ccccc12)C(=O)O` (stereo unspecified), the TGI with A549 NSCLC, in the test with EKVX NSCLC, in the test with HCT-116 colon, in the test with NCI-H226 lung, in the test on NCI-H460 lung and in the test with SW-620 colon was over 100 µM throughout.
In the case of `N#Cc1c(-c2ccc([N+](=O)[O-])cc2)c(C#N)c(=O)n(NS(=O)(=O)c2ccccc2)c1S`, the TGI in the test on A549 NSCLC was over 100 µM; in the test on CAKI-1 renal, over 100 µM; with EKVX NSCLC, over 100 µM; in the test with HCT-116 colon, 39.8 µM; in the test with MCF7 breast, over 100 µM; with NCI-H226 lung it was over 100 µM. The TGI in the test on NCI-H460 lung is over 100 µM; in the test on PC-3 prostate, over 100 µM; in the test with SW-620 colon, 45.7 µM.
For `COP(=O)(OC)OCN(C)CC/C=C(\C)CC/C=C(\C)CCC=C(C)C`, the TGI with A549 NSCLC was found to be 40.9 µM; with CAKI-1 renal, 33.8 µM; with EKVX NSCLC, 63.3 µM; with HCT-116 colon it was 25.9 µM; in the test with MCF7 breast, 28.5 µM; in the test with NCI-H226 lung, 34.6 µM. In addition, the TGI in the test with NCI-H460 lung is 23.9 µM; with PC-3 prostate, 21.2 µM; with SW-620 colon, 30.4 µM.
Consider `N#Cc1ccccc1NC(=O)C(=O)C(C(=O)c1ccccc1F)C1OC(=O)c2ccccc21` (stereo unspecified), for which the TGI with A549 NSCLC is over 100 µM; in the test with CAKI-1 renal, over 100 µM; with EKVX NSCLC, over 100 µM; in the test with HCT-116 colon, over 100 µM; in the test on NCI-H226 lung, 64.4 µM; with NCI-H460 lung it was over 100 µM. Also, in the test with SW-620 colon, the TGI is over 100 µM.
For the compound `CC1=C(C)C(=O)C(C2=CC(=O)c3ccccc3C2=O)=C(C2=CC(=O)c3ccccc3C2=O)C1=O`, the TGI is over 100 µM with A549 NSCLC; 8.86 µM in the test with CAKI-1 renal; 12.5 µM in the test on DU-145 prostate; over 72 µM in the test with EKVX NSCLC; over 100 µM in the test on HCT-116 colon; 49.5 µM in the test on NCI-H226 lung. Further, the TGI was 25.4 µM in the test on NCI-H460 lung, 21.7 µM with PC-3 prostate and over 33.9 µM with SW-620 colon.
`COc1cc2c[n+]3c4c(c2c(OC)c1OC)CCCC4CC3` (stereo unspecified): the TGI in the test on A549 NSCLC, in the test on CAKI-1 renal, in the test on DU-145 prostate, with EKVX NSCLC, with HCT-116 colon and in the test on NCI-H460 lung was over 100 µM throughout. In addition, the TGI in the test with PC-3 prostate and in the test on SW-620 colon was over 100 µM in each case.
For the compound `CCN1CC2(C)CCC(OC)C34C5CC6CCC(O)(C5C(=O)O6)C(C(O)C23)C14` (stereo unspecified), the TGI in the test on A549 NSCLC, in the test with CAKI-1 renal, with DU-145 prostate, in the test with EKVX NSCLC, with HCT-116 colon and with MCF7 breast was over 100 µM throughout. Further, the TGI with NCI-H460 lung, in the test on PC-3 prostate and with SW-620 colon was over 100 µM throughout.
Consider `Cn1c(=O)c2c(nc3[nH]c(=O)c(Br)cn32)n(C)c1=O`, for which the TGI in the test with A549 NSCLC, in the test on CAKI-1 renal, in the test with DU-145 prostate, with EKVX NSCLC, in the test with HCT-116 colon and with NCI-H226 lung was over 100 µM throughout. Further, the TGI in the test with NCI-H460 lung, in the test on PC-3 prostate and in the test with SW-620 colon was over 100 µM in each case.
